Experimental data published in patent US10945932B2, “Prebiotic oral care compositions containing carboxylic acids” (COLGATE-PALMOLIVE COMPANY, priority 2013, dated 2021).
Read-outs that look alike come from different tables or passages of the source.

How the values were obtained:
Streptococcus gordonii = details: S gordonii, BHI
Description: (§2) Late exponential growth phase liquid cultures were prepared by transferring the respective bacterium from blood agar plates to BHI and overnight incubation at 37° C. in an anaerobic atmosphere for A. viscosus, V. parvula, F. nucleatum, P. gingivalis, P. intermedia, T forsythia, A. naeslundii, and C. sputigena, and in a 5% CO2 environment for S. salivarius, S. sanguinis, S. mitis, A. actinomycetemcomitans, S. mutans, S. sobrinus and S. gordonii. Overnight cultures were transferred to BHI and adjusted to a concentration of 1×10^7 CFU/ml (colony forming units per ml) by measuring the optical density at 600 nm (OD600) (BioRad SmartSpec 3000). For each strain, 200 μl of the bacterial suspension was added to a 96-well plate containing 20 μl of the respective carboxylic acids. Final concentrations of the carboxylic acids were set to 5, 10, 20 and 25 μmol/ml. […] Plates were incubated as previously described.
(§3) For each combination of bacterium/carboxylic acid, and for each of their respective controls (i.e. the particular bacterium in the nutritionally rich medium with no carboxylic acid), the optical density was measured at 630 nm (OD630) at 0 h, 24 h and 48 h (Thermo Scientific Multiskan Ascent). Additionally, the OD630 for combinations of bacterium/carboxylic acid grown in a 5% CO2 environment were also measured every hour between 0 h and 9 h.
(§4) The experiment was carried out on three different days (thus providing 3 biological replicas) and on each day the experiment was carried out in quadruple (thus providing 4 technical replicas) for each combination of bacterium with carboxylic acid and for each control. For each day and for each combination, the average (mean) of the values obtained (as detailed above) for the four technical replicas was calculated to provide a single value for each combination on each day.

Veillonella parvula [1] = details: V parvula, BHI
Description: as §2, §3, §4

Streptococcus sobrinus = details: S sobrinus, BHI
Description: as §2, §3, §4

Streptococcus mitis = details: S mitis, BHI
Description: as §2, §3, §4

Porphyromonas gingivalis = details: P gingivalis, BHI
Description: as §2, §3, §4

[2] = system: beneficial oral bacteria and pathogenic oral bacteria; experiment: Biofilm growth, prebiotic effect over the whole panel; format: cell-based; details: 25 μmol/ml; 48 hours; threshold value of 1.6
Description: (§1) Late exponential growth phase liquid cultures were prepared by transferring the respective bacterium from blood agar plates to BHI and overnight incubation at 37° C. in an anaerobic atmosphere for A. viscosus, V. parvula, F. nucleatum, P. gingivalis, P. intermedia, T. forsythia, A. naeslundii, and C. sputigena, and in a 5% CO2 environment for S. salivarius, S. sanguinis, S. mitis, A. actinomycetemcomitans, S. mutans, and S. gordonii. […] Additionally, for each bacterium tested, a background control, to correct for background staining, was added. This background control contained the bacterium tested and 0.03 weight % chlorhexidine, as an antiseptic. Plates were incubated as previously described. After 48 hrs the supernatant was removed from the wells of the plates. The wells were washed twice with 1×100 μL/PBS (phosphate buffered saline), fixed for 20 minutes with 96% vol. ethanol (96% vol. solution in water) and the biofilm retained at the bottom of the wells was stained with 1 weight % crystal violet (1 weight % solution in water). […] Quantification of the stained biofilm was performed by measuring the absorbance at 630 nm using a Multiskan Ascent microplate reader (Thermo Scientific).

Prevotella intermedia = details: P intermedia, BHI
Description: as §2, §3, §4

Fusobacterium nucleatum = details: F nucleatum, BHI
Description: as §2, §3, §4

Actinomyces naeslundii = experiment: Biofilm growth assay in BHI, crystal violet; format: cell-based; details: A naeslundii
Description: as §1

Capnocytophaga sputigena = experiment: Biofilm growth assay in BHI, crystal violet; format: cell-based; details: C sputigena
Description: as §1

Streptococcus salivarius = experiment: Biofilm growth assay in BHI, crystal violet; format: cell-based; details: S salivarius
Description: as §1

Veillonella parvula [3] = experiment: Biofilm growth assay in BHI, crystal violet; format: cell-based; details: V parvula, 5 μmol/ml
Description: as §1

SMILES: O=C(O)CCC(=O)O [Succinic acid, succinic acid]
- extent of growth, maximal OD630 over 48 hr divided by maximal OD of control (control = 1) (Streptococcus gordonii; 5 μmol/ml): 0.8555
- extent of growth, maximal OD630 over 48 hr divided by maximal OD of control (control = 1) (Streptococcus gordonii; 10 μmol/ml): 0.7021
- extent of growth, maximal OD630 over 48 hr divided by maximal OD of control (control = 1) (Streptococcus gordonii; 20 μmol/ml): 0.2928
- extent of growth, maximal OD630 over 48 hr divided by maximal OD of control (control = 1) (Streptococcus gordonii; 25 μmol/ml): 0.1860
- extent of growth, maximal OD630 over 48 hr divided by maximal OD of control (control = 1) (Veillonella parvula [1]; 5 μmol/ml): 1.1624
- extent of growth, maximal OD630 over 48 hr divided by maximal OD of control (control = 1) (Veillonella parvula [1]; 10 μmol/ml): 1.1922
- extent of growth, maximal OD630 over 48 hr divided by maximal OD of control (control = 1) (Veillonella parvula [1]; 20 μmol/ml): 1.4603
- extent of growth, maximal OD630 over 48 hr divided by maximal OD of control (control = 1) (Veillonella parvula [1]; 25 μmol/ml): 1.3566
- extent of growth, maximal OD630 over 48 hr divided by maximal OD of control (control = 1) (Streptococcus sobrinus; 5 μmol/ml): 0.9460
- extent of growth, maximal OD630 over 48 hr divided by maximal OD of control (control = 1) (Streptococcus sobrinus; 10 μmol/ml): 0.8269
- extent of growth, maximal OD630 over 48 hr divided by maximal OD of control (control = 1) (Streptococcus sobrinus; 20 μmol/ml): 0.4744
- extent of growth, maximal OD630 over 48 hr divided by maximal OD of control (control = 1) (Streptococcus sobrinus; 25 μmol/ml): 0.2284
- extent of growth, maximal OD630 over 48 hr divided by maximal OD of control (control = 1) (Streptococcus mitis; 5 μmol/ml): 0.7273
- extent of growth, maximal OD630 over 48 hr divided by maximal OD of control (control = 1) (Streptococcus mitis; 10 μmol/ml): 0.7615
- extent of growth, maximal OD630 over 48 hr divided by maximal OD of control (control = 1) (Streptococcus mitis; 20 μmol/ml): 0.4339
- extent of growth, maximal OD630 over 48 hr divided by maximal OD of control (control = 1) (Streptococcus mitis; 25 μmol/ml): 0.1591
- extent of growth, maximal OD630 over 48 hr divided by maximal OD of control (control = 1) (Porphyromonas gingivalis; 5 μmol/ml): 1.0091
- extent of growth, maximal OD630 over 48 hr divided by maximal OD of control (control = 1) (Porphyromonas gingivalis; 10 μmol/ml): 0.8129
- extent of growth, maximal OD630 over 48 hr divided by maximal OD of control (control = 1) (Porphyromonas gingivalis; 20 μmol/ml): 0.4103
- extent of growth, maximal OD630 over 48 hr divided by maximal OD of control (control = 1) (Porphyromonas gingivalis; 25 μmol/ml): 0.4061
- prebiotic effect (biofilm growth) [2]: exhibited prebiotic effects
- extent of growth, maximal OD630 over 48 hr divided by maximal OD of control (control = 1) (Prevotella intermedia; 5 μmol/ml): 0.8288
- extent of growth, maximal OD630 over 48 hr divided by maximal OD of control (control = 1) (Prevotella intermedia; 10 μmol/ml): 0.4471
- extent of growth, maximal OD630 over 48 hr divided by maximal OD of control (control = 1) (Prevotella intermedia; 20 μmol/ml): 0.0944
- extent of growth, maximal OD630 over 48 hr divided by maximal OD of control (control = 1) (Prevotella intermedia; 25 μmol/ml): 0.0921
- extent of growth, maximal OD630 over 48 hr divided by maximal OD of control (control = 1) (Fusobacterium nucleatum; 5 μmol/ml): 0.9913
- extent of growth, maximal OD630 over 48 hr divided by maximal OD of control (control = 1) (Fusobacterium nucleatum; 10 μmol/ml): 1.0196
- extent of growth, maximal OD630 over 48 hr divided by maximal OD of control (control = 1) (Fusobacterium nucleatum; 20 μmol/ml): 0.2006
- extent of growth, maximal OD630 over 48 hr divided by maximal OD of control (control = 1) (Fusobacterium nucleatum; 25 μmol/ml): 0.1511
- biofilm growth, OD at 630 nm (crystal violet) at 48 hrs divided by OD of control (control = 1) (Actinomyces naeslundii; 5 μmol/ml): 0.7746
- biofilm growth, OD at 630 nm (crystal violet) at 48 hrs divided by OD of control (control = 1) (Actinomyces naeslundii; 10 μmol/ml): 0.2490
- biofilm growth, OD at 630 nm (crystal violet) at 48 hrs divided by OD of control (control = 1) (Actinomyces naeslundii; 20 μmol/ml): 0.0240
- biofilm growth, OD at 630 nm (crystal violet) at 48 hrs divided by OD of control (control = 1) (Actinomyces naeslundii; 25 μmol/ml): 0.0182
- biofilm growth, OD at 630 nm (crystal violet) at 48 hrs divided by OD of control (control = 1) (Capnocytophaga sputigena; 5 μmol/ml): 2.0880
- biofilm growth, OD at 630 nm (crystal violet) at 48 hrs divided by OD of control (control = 1) (Capnocytophaga sputigena; 10 μmol/ml): 2.1577
- biofilm growth, OD at 630 nm (crystal violet) at 48 hrs divided by OD of control (control = 1) (Capnocytophaga sputigena; 20 μmol/ml): 0.2256
- biofilm growth, OD at 630 nm (crystal violet) at 48 hrs divided by OD of control (control = 1) (Capnocytophaga sputigena; 25 μmol/ml): 0.3202
- biofilm growth, OD at 630 nm (crystal violet) at 48 hrs divided by OD of control (control = 1) (Streptococcus salivarius; 5 μmol/ml): 3.7553
- biofilm growth, OD at 630 nm (crystal violet) at 48 hrs divided by OD of control (control = 1) (Streptococcus salivarius; 10 μmol/ml): 1.2358
- biofilm growth, OD at 630 nm (crystal violet) at 48 hrs divided by OD of control (control = 1) (Streptococcus salivarius; 20 μmol/ml): 0.6125
- biofilm growth, OD at 630 nm (crystal violet) at 48 hrs divided by OD of control (control = 1) (Streptococcus salivarius; 25 μmol/ml): 1.7869
- biofilm growth, OD at 630 nm (crystal violet) at 48 hrs divided by OD of control (control = 1) (Veillonella parvula [3]): 0.9059
